These results are taken from patent US8604206B2, “Compositions for preventing and/or treating degenerative disorders of the central nervous system” (Amicus Therapeutics, Inc., priority 2009, dated 2013).

Counter-ions that a name gives are not always drawn. Like-named read-outs stand apart in the source and are kept apart here.

The target of assay [1] is GCase (Homo sapiens (Human), UniProt P04062). Nature of the assay: GCase activity enhancement (EC50, Emax) of Table 2B. The class given is cell-based.
The target in assay [2] is recombinant human GCase (rhGCase; Cerezyme®) (Homo sapiens (Human), UniProt P04062, R534H). As to the kind of experiment: In vitro enzyme inhibition assay (4-MU-β-D-Glc substrate), inhibition constants. The assay is classed as biochemical. Here is the method: The binding affinity (defined here by Ki binding constant) of GCase for novel compounds of the present invention were empirically determined using enzyme inhibition assays. In brief, the enzyme inhibition assays used monitored the ability of a test compound to bind and prevent the hydrolysis of a fluorogenic substrate in a concentration-dependent mariner. Specifically, the enzyme activity of recombinant human GCase (rhGCase; Cerezyme®, Genzyme Corp.) was measured using the 4-methylumbelliferyl-β-D-glucopyranoside (4-MU-β-D-Glc) fluorogenic substrate in the absence or in the presence of varying amounts of each test compound. […] The enzyme inhibition assays were performed at both pH 7.0 (endoplasmic reticulum pH) and at pH 5.2 (lysosomal pH) to gain insight into the binding affinity (i.e., potency) of compounds for GCase in the endoplasmic reticulum and lysososome.
Various concentrations of test compounds were prepared in buffer “M” consisting of 50 mM sodium phosphate buffer with 0.25% sodium taurocholate at pH 7.0 and pH 5.2. Enzyme (Cerezyme®, a recombinant form of the human enzyme β-glucocerebrosidase) was also diluted in the same buffer “M” at pH 7.0 and pH 5.2. […] Five microliters of diluted enzyme was added to 15 μl of the various inhibitor concentrations or buffer “M” alone and incubated at 37° C. for 1 hour with 50 μl of the substrate preparation to assess β-glucosidase activity at pH 7.0 and pH 5.2. […] Fluorescence was measured on a plate reader for 1 sec/well using 355 nm excitation and 460 nm emission.

Assay [3] concerns the target lysosomal GCase (Homo sapiens (Human), UniProt P04062). Nature of the assay: In situ lysosomal GCase inhibition and washout assay in fibroblasts from a normal subject. The assay is classed as cell-based. Particulars: for in situ washout: fibroblasts treated at IC90, then drug-free medium; for IC50: fibroblasts, 16-24 hours with compound, PFBFDβGlu substrate. On the procedure: The effect of the novel compounds of the present invention on lysosomal GCase activity was assayed in situ using fibroblasts established from a normal subject. Cells seeded in 48-well plates were incubated with the indicated concentrations of compound for 16-24 hours. For the dose-response assays, cells were incubated with the in situ substrate 5-(pentafluorobenzoylamino)fluorescein di-β-D-glucopyranoside (PFBFDβGlu) for 1 hour and subsequently lysed to determine the extent of substrate hydrolysis in the presence of compound. […] Inhibition was determined as the ratio of activity in the presence of compound to that in the absence of compound. […] Cells were washed extensively and incubated in drug-free medium to allow net compound efflux from cells. Cells were then tested for lysosomal GCase activity at 2 hour intervals over a total period of 8 hours following compound removal. The increase in activity over time was fitted with a single exponential function to determine the compound's washout time.

[4] abbreviates: pH 5.2, Cheng-Prusoff from IC50, read-out: Ki (μM) pH 5.2.
The mark [5] stands for this setting: pH 5.2, read-out: IC50 (μM) pH 5.2.
Where [6] appears, read: pH 5.2, repeated in Table 3A, read-out: Ki pH 5.2.
Setting [7] is: pH 5.2, repeated in Table 3B, read-out: Ki pH 5.2.
Setting [8] is: pH 7.0, Cheng-Prusoff from IC50, read-out: Ki (μM) pH 7.0.
Where [9] appears, read: pH 7.0, read-out: IC50 (μM) pH 7.0.

For orientation: EC50 means the concentration that produces a half-maximal response. One may read the Ki as a dissociation constant, usually derived from enzyme kinetics or from competition with a known ligand. As a reminder, the IC50 is the concentration that inhibits the measured activity by half. A word on the Emax: it is the size of the effect at its maximum, as opposed to the concentration needed.

Chain of recombinant human GCase (rhGCase; Cerezyme®) (P04062 40-536 R534H limits assumed): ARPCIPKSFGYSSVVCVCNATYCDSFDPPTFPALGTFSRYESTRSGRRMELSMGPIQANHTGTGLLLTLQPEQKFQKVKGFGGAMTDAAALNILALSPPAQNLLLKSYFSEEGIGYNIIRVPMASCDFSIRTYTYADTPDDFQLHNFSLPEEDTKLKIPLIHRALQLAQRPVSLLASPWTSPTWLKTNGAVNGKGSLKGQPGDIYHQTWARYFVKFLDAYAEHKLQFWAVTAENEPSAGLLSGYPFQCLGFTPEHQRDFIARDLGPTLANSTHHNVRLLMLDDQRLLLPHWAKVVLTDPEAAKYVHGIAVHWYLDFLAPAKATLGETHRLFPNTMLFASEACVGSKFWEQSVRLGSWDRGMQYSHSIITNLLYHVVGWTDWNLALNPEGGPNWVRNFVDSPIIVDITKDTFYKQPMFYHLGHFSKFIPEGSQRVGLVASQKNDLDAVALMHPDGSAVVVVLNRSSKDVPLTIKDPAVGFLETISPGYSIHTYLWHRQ
Chain of GCase (P04062 40-536): as the sequence (P04062 40-536 R534H limits assumed) above, with H495R counted along it
Chain of lysosomal GCase (P04062 40-536): as the sequence (P04062 40-536 R534H limits assumed) above, with H495R counted along it

Turning to `CC(C)(O)[C@H]1CNC[C@@H](O)[C@@H]1O` [(3R,4R,5S)-5-(2-hydroxypropan-2-yl)piperidine-3,4-diol], the EC50 in assay [1] is 791 ± 162 nM. For the same molecule, the Ki in assay [2] (setting [4]) was determined as 0.097 ± 0.0015 µM; in assay [2] (setting [6]) it was 0.097 ± 0.0015 µM; in assay [2] (setting [7]) it was 0.097 ± 0.0015 µM; in assay [2] (setting [8]), 0.015 ± 0.0007 µM. Moreover, the concentration for half-maximal inhibition (IC50) came out at 0.234 ± 0.0037 µM in assay [2] (setting [5]) and 0.029 ± 0.0013 µM in assay [2] (setting [9]).

With `C[C@@H](F)[C@@H]1CNC[C@@H](O)[C@@H]1O.Cl` [Cmpd 14], the “in situ washout” value in assay [3] came out at 3.7 ± 0.63 h. Besides, in assay [1], the “Emax (%)” value turned out to be 89.7 ± 3.5%.

On to `C[C@@H](F)[C@@H]1CNC[C@@H](O)[C@@H]1O.Cl` [Cmpd 14, (3R,4R,5R)-5((R)-(1-Fluoroethyl)piperidine 3,4-diol Hydrochloride], for which the IC50 in assay [3] came to 61 ± 19 nM; in assay [2] (setting [5]), 0.038 ± 0.0016 µM; in assay [2] (setting [9]), 0.007 ± 0.0003 µM. Further, the EC50 in assay [1] came out at 26 ± 3 nM. Further, the inhibition constant Ki came to 0.016 ± 0.0007 µM in assay [2] (setting [4]) and 0.004 ± 0.0001 µM in assay [2] (setting [8]).

As to `CC(O)[C@H]1CNC[C@@H](O)[C@@H]1O` (single isomer, unassigned) [Cmpd 9], the “in situ washout” value in assay [3] worked out at 10.5 ± 1.75 h. For the same molecule, the 50% inhibitory concentration (IC50) in assay [3] was found to be 518 ± 22 nM; in assay [2] (setting [5]), 0.107 ± 0.0041 µM; in assay [2] (setting [9]), 0.02 ± 0.0008 µM. Besides, the EC50 in assay [1] was determined as 490 ± 60 nM. The Emax in assay [1] amounted to 83.7 ± 2.9%. The inhibition constant (Ki) was determined as 0.044 ± 0.0017 µM in assay [2] (setting [4]) and 0.01 ± 0.0004 µM in assay [2] (setting [8]).

Regarding `C[C@H](O)[C@H]1CNC[C@@H](O)[C@@H]1O` (single isomer, unassigned) [Cmpd 10], the “in situ washout” value in assay [3] amounted to 12 ± 1.65 h. In addition, the figures for the IC50 in assay [3], in assay [2] (setting [5]) and in assay [2] (setting [9]) were 798 ± 43 nM, 0.343 ± 0.021 µM and 0.066 ± 0.0041 µM, respectively. Moreover, in assay [1], the EC50 came out at 1060 ± 120 nM. The Ki in assay [2] (setting [4]) was determined as 0.142 ± 0.0088 µM; in assay [2] (setting [8]) it was 0.035 ± 0.0021 µM.

On to `CC(O)[C@H]1CNC[C@@H](O)[C@@H]1O` (single isomer, unassigned), for which, in assay [3], the “inhibition of GCase activity” value is “inhibited GCase activity”. Moreover, the “increase in GCase activity compared to IFG-tartrate” value in assay [1] (compared to reference compound IFG-tartrate) was “enhanced enzyme activity to the same maximum level as reference compound IFG-tartrate at much lower concentration”.

Take `O[C@@H]1[C@@H]([C@H](O)c2ccccc2)CNC[C@H]1O` [(3R,4R,5R)-5-((S)-hydroxy(phenyl)methyl)-piperidine-3,4-diol]: the half-maximal effective concentration (EC50) in assay [1] was 4990 ± 860 nM. Moreover, the Ki in assay [2] (setting [4]) stood at 1.36 ± 0.1 µM; in assay [2] (setting [6]), 1.36 ± 0.1 µM; in assay [2] (setting [7]) it was 1.36 ± 0.1 µM; in assay [2] (setting [8]), 0.0089 ± 0.0018 µM. For the same molecule, the 50% inhibitory concentration (IC50) in assay [2] (setting [5]) worked out at 3.29 ± 0.25 µM; in assay [2] (setting [9]), 0.017 ± 0.0035 µM.

In the case of `C[C@H](F)C1CNC[C@@H](O)[C@@H]1O` (stereo in doubt) [Cmpd 13, (3R,4R,5R)-5((S)-1-Fluoroethyl)piperidine 3,4-diol Hydrochloride], the “in situ washout” value in assay [3] stood at 2.7 ± 0.12 h.
